Results published in PubChem BioAssay AID1996.
Values after ≈ are worked out from the molar mass of the structure shown.

details: buffer; pH 7.4; 200.0 µM

SMILES | solubility kinetic [µg/mL]
Cc1nnc(NC(=O)C2CC(=O)N(Cc3ccccc3)C2)s1 (centres undefined) | > 47.5
O=C(Oc1ccc(C(=S)N2CCOCC2)cc1)c1ccccc1F | 36.6 (≈ 106 µM)
O=C(Nc1ccc(F)cc1)/C(=C1/CCCCCN1)[N+](=O)[O-] | > 44
Nc1nc(Nc2ccccc2)nc(N2CCCC2)c1[N+](=O)[O-] | 27.6 (≈ 91.9 µM)
CN(C)S(=O)(=O)c1cccc(NC(=O)CCCC2CCCCC2)c1 | 8.2 (≈ 23.3 µM)
Cn1ccnc1SC(C(=O)O)c1ccccc1 (centres undefined) | > 37.2
O=C(Cc1ccc(Cl)cc1Cl)OCC(=O)N1CCCCC1 | > 49.5
O=C(COC(=O)COc1cc(Cl)c(Cl)cc1Cl)NC1CC1 | 23.6 (≈ 66.9 µM)
O=C(CSC(=S)N1CCOCC1)c1cc2ccccc2oc1=O | 7.4 (≈ 21.2 µM)
COc1cccc(NC(=O)COC(=O)C2CCCCC2)c1 | > 43.7
C=CCNS(=O)(=O)c1cc2c3c(c1)CCN3C(=O)CC2 | > 43.9
CCNC(=O)CC1C(=O)N(c2cccc(C)c2)C(=O)N1CCC(C)C (centres undefined) | > 51.8
Cc1ccc(C(=O)CCC(=O)Nc2ccccc2F)cc1 | 4.8 (≈ 16.8 µM)
CS(=O)(=O)NCCCNc1ccc(C(F)(F)F)cc1[N+](=O)[O-] | > 51.2
NC(=O)C1CCN(C(=O)/C(=C/c2ccccc2)NC(=O)c2ccccc2)CC1 | 53.7 (≈ 142 µM)
Cc1nc2c(C#N)c[nH]n2c(=O)c1CCO | > 32.7
Cc1ccc(S(C)(=O)=NS(=O)(=O)c2cccc3nsnc23)cc1 (centres undefined) | > 55.1
N/C(CS(=O)(=O)c1ccccn1)=N\OC(=O)c1ccc(Cl)cc1 | 19.1 (≈ 54 µM)
Cc1cccc(NC(=O)CCC(=O)N2CCOCC2)n1 | > 41.6
CCN1C=C(C(=O)OC)C(c2cccc(OC)c2OC)C(C(=O)OC)=C1 | 8.4 (≈ 23.2 µM)
O=C(NC1CCCCC1)C1CC(=O)N(CCc2ccc(F)cc2)C1 (centres undefined) | 45 (≈ 135 µM)
CCc1ccccc1NC(=O)CCS(=O)(=O)c1ccc(OC)cc1 | 26.4 (≈ 76 µM)
CC(=O)OCCN(C)c1cc(SC(C)C)c2nonc2c1[N+](=O)[O-] | 51.2 (≈ 144 µM)
CC(C)CN1CCCC(N2CCN(c3cccc(Cl)c3)CC2)C1 (centres undefined) | 39.8 (≈ 118 µM)

SMILES | solubility kinetic [µg/mL]
CCCOC(=O)CC1C(=O)NCCN1Cc1cc(OC)cc(OC)c1 (centres undefined) | > 52.6
CC(C)c1ccc(NC(=O)Nc2cnccn2)cc1 | 3.9 (≈ 15.2 µM)
Cc1ccc(NC(=O)CC(N)=S)cc1 | 30.7 (≈ 147 µM)
COc1ccc(CCNC(=O)C2C3CCC(C3)C2C(=O)O)cc1OC (centres undefined) | 43.7 (≈ 126 µM)
CCOCCn1c(SC(C)C(C)=O)nc2c1c(=O)[nH]c(=O)n2C (centres undefined) | > 51.1
Cc1cccc(COC(=O)C(Cc2ccccc2)NC(N)=O)c1 (centres undefined) | > 46.9
CC(C)(C)C(=O)Nc1ccc(NC(=O)c2ccco2)nc1 | > 43.1
Cc1ccc(C(=O)Oc2ccccc2N2CCOCC2)cc1 | 4.9 (≈ 16.5 µM)
COc1ccc(-c2onc(C)c2-c2cscn2)c(O)c1 | > 43.2
CC(C)Cc1nnc(NC(=O)C2=COCCO2)s1 | > 40.4
S=c1nccc(-c2ccc3c(c2)CCO3)[nH]1 | 14.8 (≈ 64.3 µM)
COc1ccc(-c2noc(-c3cccs3)n2)cc1OC | 0.5 (≈ 1.73 µM)
COc1cccc(C(=O)Nc2ccccc2C(=O)NC2CC2)c1 | 11.9 (≈ 38.3 µM)
Cc1cccc(N2C(=O)CC(Sc3nccc(C)n3)C2=O)c1 (centres undefined) | > 47
Cc1nc2ccccn2c1-c1ccnc(=S)[nH]1 | 31.8 (≈ 131 µM)
COc1ccccc1N(CC(=O)NC1CCCCC1C)S(=O)(=O)c1cccs1 (centres undefined) | 2 (≈ 4.73 µM)
Cc1nc2ccccc2nc1Nc1cccc(Cl)c1 | 20.2 (≈ 74.9 µM)
O=C(NCc1ccc(F)cc1)c1cnc(Cl)c(Cl)c1 | 6.9 (≈ 23.1 µM)
CC(=O)NS(=O)(=O)c1ccc(NC(=O)[C@@H]2CCCN2S(=O)(=O)c2ccc(Cl)cc2)cc1 | > 72.9
CCOc1ccccc1/C=C(\C(=O)O)c1ccc(S(=O)(=O)N2CCCCC2)s1 | > 63.2
Cc1cccc(OCC(O)CN2CCc3ccccc3C2)c1.Cl (centres undefined) | > 50.1
O=c1[nH]cnc2onc(-c3ccc(F)cc3)c12 | > 34.7
NS(=O)(=O)c1ccc(CNC(=O)c2ccncc2)cc1 | > 43.7
CC(C(=O)Nc1ccccc1)N1C(=O)c2ccccc2C1=O (centres undefined) | > 44.1

SMILES | solubility kinetic [µg/mL]
O=C(COC(=O)c1ccc(O)cc1)Nc1ncc(Cl)cc1Cl | 31.5 (≈ 92.3 µM)
CCc1ccccc1NC(=O)N1CCc2ccccc2C1 | > 42.1
O=C1N(c2ccccc2)c2ccccc2C1(O)C(F)(F)F (centres undefined) | > 44
C=CCN(CC=C)C(=S)Nc1ccc2nsnc2c1 | > 43.6
NS(=O)(=O)c1ccc(Nc2nc(-c3cccnc3)cs2)cc1 | < 0.2
C1CCCN(C2CCNCC2)CC1.Cl | > 38.3
Cl.O=c1cn[nH]c2ccccc12 | > 27.4
Cc1ccc(C(=O)NCCNC(=O)c2ccccn2)cc1 | > 42.5
COCc1cc(=O)[nH]c(-c2ccccc2OC(F)(F)F)n1 | > 45
COc1ccc(OC)c(S(=O)(=O)NCc2ccccn2)c1 | > 46.3
CC(NS(=O)(=O)/C=C/c1ccccc1)C(=O)O (centres undefined) | 34.2 (≈ 134 µM)
Cc1ccc(NC(=O)COc2ccc(N(C)C(=O)C(C)(C)C)cc2)cc1S(=O)(=O)N1CCCCC1 | 6.7 (≈ 13.4 µM)
CCN(C(=O)COC(=O)c1ccccc1OCc1ccc(Cl)cc1)C1CCS(=O)(=O)C1 (centres undefined) | 25 (≈ 53.7 µM)
O=C1Nc2ccc(Cl)cc2C(C#CC2CC2)(C(F)(F)F)O1 (centres undefined) | 19.6 (≈ 62.1 µM)
O=C(CSc1cccc[n+]1[O-])NC1CCCCCCC1 | 39.3 (≈ 133 µM)
CCN(CC)CCC(O)(c1ccccc1)C1CCCCC1 (centres undefined) | 24.3 (≈ 83.9 µM)
Cc1cc(C)cc(NC(=O)CN2CCC(C(=O)c3ccccc3)CC2)c1 | 16.5 (≈ 47.1 µM)
Cc1ccc(-n2c(O)c(C=NCc3ccccn3)c(=O)[nH]c2=S)cc1 | 29.6 (≈ 84 µM)
COc1cccc(N2CN(CCc3ccccc3)CNC2=S)c1 | 9.8 (≈ 29.9 µM)
Cc1cc(/C=C(\C#N)C(=O)OCC#N)c(C)n1CC(C)C | 13.6 (≈ 47.7 µM)
FCCCOc1ccc(-c2nccc(-c3ccccn3)n2)cc1 | 2.8 (≈ 9.05 µM)
O=C(OCCN=C1NS(=O)(=O)c2ccccc21)c1cccs1 | 2.5 (≈ 7.43 µM)
CCN1CCN(c2nc(Nc3ccc(OC)cc3)nc(N)c2[N+](=O)[O-])CC1 | 49.6 (≈ 133 µM)
COc1ccccc1Nc1c2ccccc2nc2ccccc12 | 35.5 (≈ 118 µM)

SMILES | solubility kinetic [µg/mL]
CC(=O)N1CCN(S(=O)(=O)c2ccc3c(c2)CCC(=O)N3)CC1 | > 50.6
CCOc1ccccc1NC(=S)NC(=O)C1CCCCC1 | 0.6 (≈ 1.96 µM)
COc1ccccc1C(=O)NCCC(=O)NCCOc1ccccc1 | > 51.4
O=C(c1cc2c(s1)CCCC2)N1CCN(c2ccccc2)CC1 | 1.5 (≈ 4.59 µM)
CN1CCN(c2nc(-c3ccc(Cl)c(Cl)c3)nc3ccccc23)CC1 | 0.4 (≈ 1.07 µM)
CSc1nc(N2CCOCC2)c2c(c1C#N)CC(C(C)C)OC2 (centres undefined) | < 0.2
CCCCN(Cc1cc2cc(C)ccc2[nH]c1=O)C(=O)c1ccccn1 | > 52.4
O=[N+]([O-])c1cccc2c(Cl)ccnc12 | > 31.3
CCOc1cc(C(=O)Nc2ccc(S(=O)(=O)Nc3onc(C)c3C)cc2)cc(OCC)c1OCC | > 75.5
CC(C)C(=O)N1CCC(Cc2ccccc2)CC1 | 33.5 (≈ 137 µM)
c1ccc(Sc2ccccn2)cc1 | > 28.1
Cc1ccc(NC(=O)C(=O)NCCCN2CCOCC2)c(C)c1 | > 47.9
Cc1c(C)n(Cc2ccccc2)c2ncnc(NCCN(C)C)c12 | > 48.5
O=C(NCc1cccnc1)c1ccc([N+](=O)[O-])cc1 | > 38.6
CCN(c1ccccc1)S(=O)(=O)c1ccc(N2CCN(c3ccc(O)cc3)CC2)nc1 | 2.7 (≈ 6.16 µM)
O=C(O)CCN=Cc1c(O)c2ccccc2oc1=O | > 39.2
O/C(=C\c1nc2ccccc2[nH]1)c1cccs1 | 28.3 (≈ 117 µM)
Cc1ccccc1NC(=O)NCCCN1CCCC1=O | > 41.3
Cc1c(Cl)cccc1NC(=S)NCCc1ccc(Cl)cc1 | 0.4 (≈ 1.18 µM)
O=C(NCCCN1CCOCC1)c1cc(Cl)ccc1Cl | 41 (≈ 129 µM)
O=C(COC(=O)c1ccc(F)c(S(=O)(=O)N2CCOCC2)c1)NCc1ccc(F)cc1 | > 68.2
Cc1cc(Br)ccc1NC(=O)C1C2CCC(O2)C1C(=O)O (centres undefined) | > 53.1
CCOC(=O)CN/C=C(\C#N)c1ccc(F)cc1 | 36.4 (≈ 147 µM)
O=c1[nH]c2c(oc3ccccc32)c(=O)n1Cc1ccccc1 | 3 (≈ 10.3 µM)

SMILES | solubility kinetic [µg/mL]
Cc1ccc(-n2c(C)nn(CC#N)c2=O)cc1 | > 34.2
CN(c1ccccc1)c1nc(N)c([N+](=O)[O-])c(Nc2ccccc2F)n1 | < 0.1
Cc1ccc(CN2CCN(C(=O)CC(C)C)CC2)cc1 | 25.1 (≈ 91.5 µM)
O=C(COC(=O)CNC(=O)C1CCCCC1)Nc1cccc(F)c1 | > 50.5
Cn1c(=O)c2c(ncn2CC(O)CO)n(C)c1=O (centres undefined) | > 38.1
COc1ccc(C(=O)CNc2cccc(F)c2)cc1 | 4.3 (≈ 16.6 µM)
Cc1ccc(C)c(N2CCN(CCN3CCCCC3)CC2)c1.Cl | 36.5
CC/C(=N\N1CCCCC1)c1c(O)[nH]c(=O)[nH]c1=O | > 39.9
CCOc1ccccc1Nc1nnc(SCC(=O)NCC2CCCO2)s1 (centres undefined) | > 59.2
O=S(=O)(NCCN1CCCC1)c1ccc(C(F)(F)F)cc1 | > 48.4
N/C(=N/O)c1nc(N2CCCC2)nc(N2CCCC2)n1 | > 41.6
CCC(C)[C@H](NC(=O)N1CCCCCC1)C(=O)O (some centres undefined) | > 38.5
O=[N+]([O-])c1c(NCCO)cc(N2CCC3(CC2)OCCO3)c2nonc12 | > 54.8
CCOC(=O)Cc1csc(NC(=O)Cc2ccc(Cl)cc2)n1 | 5.5 (≈ 16.2 µM)
N#CC(CC(=O)c1ccc(F)cc1)c1ccc2c(c1)OCO2 (centres undefined) | 1.2 (≈ 4.04 µM)
CC1CC(C)CN(C(=O)Cc2c(C(=O)O)[nH]c3ccc(Cl)cc23)C1 (centres undefined) | > 52.3
O=C(COC(=O)COc1ccc(Br)cc1)NC1CCCC1 | 13.3 (≈ 37.3 µM)
CCc1ccc(C(C)NC(=O)C2CCCC2)cc1 (centres undefined) | 18.8 (≈ 76.6 µM)
CCOc1ccc(NC(=S)c2ccc3ccccc3n2)cc1 | < 0.3
Cc1ccc(C23CC4CC(CC(C(=O)NC(C)C(=O)O)(C4)C2)C3)cc1 (centres undefined) | > 51.2
Cn1c(N)c(C(=O)COC(=O)C2CCCC2)c(=O)n(C)c1=O | > 46.4
Cn1c(=O)c([N+](=O)[O-])c(N2CCSCC2)c2ccccc21 | 2.2 (≈ 7.2 µM)
COc1ccc(NC(=O)C#Cc2ccccc2)cc1 | 5.2 (≈ 20.7 µM)
